Measurements from patent publication US20220169639A1 (priority 2018, published 2022).
pIC50: −log10 of the molar value.

What was measured:
[1] = tested on: HBV (HBsAg) in HBV-infected PHH; experiment: Cryopreserved primary human hepatocytes (PHH) HBV infection assay, extracellular HBsAg (CLIA); type: cell-based; conditions: Hepatitis B virus, Hepatocyte, 216 h, read-out: HBsAg IC50
Method: This assay is used to confirm the anti-HBV effect of the compounds in HBV PHH infection assay. Cryopreserved PHH (BioreclamationIVT, Lot YJM) was thawed at 37° C. and gently transferred into pre-warmed InVitroGRO HT medium (BioreclamationIVT, Cat. S03317). The mixture was centrifuged at 70 relative centrifugal force (RCF) for 3 minutes at RT, and the supernatant was discarded. Pre-warmed InVitroGRO CP medium (BioreclamationIVT, Cat #S03316) was added to the cell pellet to gently re-suspend cells. The cells were seeded at the density of 5.8×10^4 cells per well to collagen I coated 96-well plate (Gibco, Cat. A1142803) with the InVitroGRO CP medium. All plates were incubated at 37° C. with 5% CO2 and 85% humidity.
At 20 hours after plating, the medium was changed to PHH culture medium (Dulbecco's Modified Eagle Medium (DMEM)/F12 (1:1) (Gibco, Cat. 11320-033), 10% fetal bovine serum (Gibco Cat. 10099141), 100 U/mL penicillin, 100 μg/mL streptomycin (Gibco, Cat. 151401-122), 5 ng/mL human epidermal growth factor (Invitrogen Cat. PHG0311L), 20 ng/mL dexamethasone (Sigma, Cat. D4902) and 250 ng/mL human recombinant insulin (Gibco, Cat. 12585-014)). And the cells were incubated at 37° C. with 5% CO2 and 85% humidity for 4 hours. The medium was then changed to pre-warmed PHH culture medium containing 4% polyethylene glycol (PEG) MW8000 (Sigma, Cat. P1458-50ML) and 1% DMSO (Sigma, Cat. D2650). 5.8×10^6 genomic equivalents of HBV were added into the medium.
At 24 hours post-infection, the cells were gently washed with PBS and refreshed with PHH culture medium supplemented with 1% DMSO, and 0.25 mg/mL Matrix gel (Corning, Cat. 356237) at 200 μL per well. All plates were immediately placed in at 37° C. CO2 incubator. 24 hours later, serial dilutions of compounds made with DMSO were further diluted with the same culture medium (PHH culture medium supplemented with 1% DMSO and 0.25 mg/mL Matrix gel as described above) before they were added to the cells to reach desired final compound concentrations and 1% DMSO concentration. The medium containing the compounds were refreshed every three days.
At 9 days post-compound treatment, extracellular HBsAg level were measured with Chemiluminescence Immuno Assay (CLIA) kit (Autobio, HBsAg Quantitative CLIA). Extracellular HBV DNA was extracted by MagNA Pure 96 system (Roche) and then determined
HBsAg IC50 and HBV DNA IC50 values were derived from the dose-response curve using 4 parameter logistic curve fit method. The compounds of formula (I) have HBsAg IC50<20 μM, particularly <1 μM; and HBV DNA IC50<50 μM. Results of Cryopreserved PHH assay are given in TableBIO2.

[2] = tested on: HBeAg (surrogate marker for cccDNA) in HepDES19 cells; experiment: Engineered HepDES19 primary screen assay (HBeAg ELISA); type: cell-based, HBV; conditions: Hepatitis B virus, 120 h, HBeAg in culture supernatant, 5 days incubation, read-out: IC50 (HepDES19 primary screen assay, inhibition of extracellular HBeAg level)
How it was run: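 HepDES19 cells pre-induced by Tet withdrawal for 8 days, frozen, then seeded and dosed after 24 h with half-log compound dilutions (1% DMSO final). After 5 days at 37 °C, HBeAg measured by ELISA and viability by CCK-8; IC50 from 4-parameter logistic fit.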

Row | Structure (SMILES) | pIC50 [1] | pIC50 [2]
1 | O=C(O)[C@@H]1CCN(CCOCCOc2cc(Br)ccc2-c2cc(=O)c3cccc(Cl)c3o2)C1 [Example 047, (3R)-1-[2-[2-[5-bromo-2-(8-chloro-4-oxo-chromen-2-yl)phenoxy]ethoxy]ethyl]pyrrolidine-3-carboxylic acid] | 5.55 | 6.00
2 | NC(=O)CNCCOc1cc(C(F)(F)F)ccc1-c1cc(=O)c2cccc(Cl)c2o1 [Example 167, 2-[2-[2-(8-chloro-4-oxo-chromen-2-yl)-5-(trifluoromethyl)phenoxy]ethylamino]acetamide] | 5.10 | 5.48
3 | O=C(O)C1CCC(NCCCOc2cc(C(F)(F)F)ccc2-c2cc(=O)c3cccc(Cl)c3o2)C1 (stereo not shown) [Example 007, 3-[3-[2-(8-chloro-4-oxo-chromen-2-yl)-5-(trifluoromethyl)phenoxy]propylamino]cyclopentanecarboxylic acid] | 5.31 | 5.02
4 | COc1cc(-c2cc(=O)c3cccc(Cl)c3o2)c(OCCCN2CC[C@@H](C(=O)O)C2)cc1Br [Example 016, (3R)-1-[3-[5-bromo-2-(8-chloro-4-oxo-chromen-2-yl)-4-methoxy-phenoxy]propyl]pyrrolidine-3-carboxylic acid] | 5.12 | 6.05
5 | O=C(O)C(=O)NC1CC(Oc2cc(C(F)(F)F)ccc2-c2cc(=O)c3cccc(Cl)c3o2)C1 (stereo not shown) [Example 133] | 5.55 | 5.34
6 | O=C(O)[C@H]1CCN(CC(O)COc2cc(Br)ccc2-c2cc(=O)c3cccc(Cl)c3o2)C1 (stereo partly drawn) [Example 164, (3S)-1-[3-[5-bromo-2-(8-chloro-4-oxo-chromen-2-yl)phenoxy]-2-hydroxy-propyl]pyrrolidine-3-carboxylic acid] | 5.02 | 5.53
7 | O=c1cc(-c2ccc(C(F)(F)F)cc2OCCCN2C[C@@H](O)[C@@H](O)C2)oc2c(Cl)cccc12 [Example 077, 8-chloro-2-[2-[3-[(3R,4S)-3,4-dihydroxypyrrolidin-1-yl]propoxy]-4-(trifluoromethyl)phenyl]chromen-4-one] | 5.66 | 7.30
8 | NS(=O)(=O)CCNCCCOc1cc(C(F)(F)F)ccc1-c1cc(=O)c2cccc(Cl)c2o1 [Example 080, 2-[3-[2-(8-chloro-4-oxo-chromen-2-yl)-5-(trifluoromethyl)phenoxy]propylamino]ethanesulfonamide] | 5.40 | 5.50
9 | O=C(O)C(=O)N1CC[C@H](Oc2cc(C(F)(F)F)ccc2-c2cc(=O)c3cccc(Cl)c3o2)C1 [Example 126, 2-oxo-2-[(3S)-3-[2-(8-chloro-4-oxo-chromen-2-yl)-5-(trifluoromethyl)phenoxy]pyrrolidin-1-yl]acetic acid] | 5.38 | 6.04
10 | O=C(O)C1CN(CCCOc2cc(Br)ccc2-c2cc(=O)c3cccc(Cl)c3o2)CCO1 (stereo not shown) [Example 002, 4-[3-[5-bromo-2-(8-chloro-4-oxo-chromen-2-yl)phenoxy]propyl]morpholine-2-carboxylic acid] | 5.40 | 6.60
11 | CS(=O)(=O)NC(=O)[C@@H]1CCN(CCOc2cc(Br)ccc2-c2cc(=O)c3cccc(Cl)c3o2)C1 [Example 064, (3R)-1-[2-[5-bromo-2-(8-chloro-4-oxo-chromen-2-yl)phenoxy]ethyl]-N-methylsulfonyl-pyrrolidine-3-carboxamide] | 5.19 | 7.10
12 | O=C(O)[C@@H]1CCN(CCOc2cc(Br)ccc2-c2cc(=O)c3c(C(F)(F)F)ccc(Cl)c3o2)C1 [Example 041, (3R)-1-[2-[5-bromo-2-[8-chloro-4-oxo-5-(trifluoromethyl)chromen-2-yl]phenoxy]ethyl]pyrrolidine-3-carboxylic acid] | 5.26 | 7.52
13 | O=C(O)C(=O)NCC(O)COc1cc(C(F)(F)F)ccc1-c1cc(=O)c2cccc(Cl)c2o1 (stereo not shown) [Example 166, 2-[[3-[2-(8-chloro-4-oxo-chromen-2-yl)-5-(trifluoromethyl)phenoxy]-2-hydroxy-propyl]amino]-2-oxo-acetic acid] | 5.52 | 5.80
14 | O=c1cc(-c2ccc(Br)cc2OCCN2CCS(=O)(=O)CC2)oc2c(Cl)cccc12 [Example 089, 2-[4-bromo-2-[2-(1,1-dioxo-1,4-thiazinan-4-yl)ethoxy]phenyl]-8-chloro-chromen-4-one] | 5.24 | 5.71
15 | O=C(O)C1COCCN1CCOc1cc(Br)ccc1-c1cc(=O)c2cccc(Cl)c2o1 (stereo not shown) [Example 052, 4-[2-[5-bromo-2-(8-chloro-4-oxo-chromen-2-yl)phenoxy]ethyl]morpholine-3-carboxylic acid] | 5.24 | 7.10
16 | O=C(O)[C@@H]1CCN(CCCOc2cc(Br)ccc2-c2cc(=O)c3cccc(Cl)c3o2)C1 [Example 005, (3R)-1-[3-[5-bromo-2-(8-chloro-4-oxo-chromen-2-yl)phenoxy]propyl]pyrrolidine-3-carboxylic acid] | 5.08 | 5.05
17 | O=C(O)C1CC(NCCCOc2cc(C(F)(F)F)ccc2-c2cc(=O)c3cccc(Cl)c3o2)C1 (stereo not shown) [Example 006, 3-[3-[2-(8-chloro-4-oxo-chromen-2-yl)-5-(trifluoromethyl)phenoxy]propylamino]cyclobutanecarboxylic acid] | 5.42 | 5.33
18 | O=C(O)C1CN(CCOc2cc(Br)ccc2-c2cc(=O)c3cccc(Cl)c3o2)CCO1 (stereo not shown) [Example 023, 4-[2-[5-bromo-2-(8-chloro-4-oxo-chromen-2-yl)phenoxy]ethyl]morpholine-2-carboxylic acid] | 5.31 | 6.89
19 | NC(=O)NCCCOc1cc(C(F)(F)F)ccc1-c1cc(=O)c2cccc(Cl)c2o1 [Example 157, 3-[2-(8-chloro-4-oxo-chromen-2-yl)-5-(trifluoromethyl)phenoxy]propylurea] | 5.47 | 5.38
20 | CN(C1CCN(CCOc2cc(Br)ccc2-c2cc(=O)c3cccc(Cl)c3o2)C1)S(C)(=O)=O (stereo not shown) [Example 076, N-[1-[2-[5-bromo-2-(8-chloro-4-oxo-chromen-2-yl)phenoxy]ethyl]pyrrolidin-3-yl]-N-methyl-methanesulfonamide] | 5.10 | 5.79
21 | O=C(O)[C@H]1CCN(CCCOc2cc(C(F)(F)F)ccc2-c2cc(=O)c3cccc(Cl)c3o2)C1 [Example 014, (3S)-1-[3-[2-(8-chloro-4-oxo-chromen-2-yl)-5-(trifluoromethyl)phenoxy]propyl]pyrrolidine-3-carboxylic acid] | 5.29 | 6.43
22 | O=C(O)C(=O)NCCCOc1cc(C(F)(F)F)ccc1-c1cc(=O)c2cccc(Cl)c2o1 [Example 117] | 5.72 | 5.67
23 | O=C1CCCN1CCOc1cc(Br)ccc1-c1cc(=O)c2cccc(Cl)c2o1 [Example 075, 1-[2-[5-bromo-2-(8-chloro-4-oxo-chromen-2-yl)phenoxy]ethyl]pyrrolidin-2-one] | 5.45 | 6.96
24 | O=C(O)CNCCCOc1cc(C(F)(F)F)ccc1-c1cc(=O)c2cccc(Cl)c2o1 [Example 125, 2-[3-[2-(8-chloro-4-oxo-chromen-2-yl)-5-(trifluoromethyl)phenoxy]propylamino]acetic acid] | 5.50 | 5.69
25 | O=C(O)C(=O)NCCOc1cc(C(F)(F)F)ccc1-c1cc(=O)c2cccc(Cl)c2o1 [Example 119, 2-[2-[2-(8-chloro-4-oxo-chromen-2-yl)-5-(trifluoromethyl)phenoxy]ethylamino]-2-oxo-acetic acid] | 6.17 | 5.46
26 | C[S+]([O-])C1CCN(CCOc2cc(C(F)(F)F)ccc2-c2cc(=O)c3cccc(Cl)c3o2)CC1 (stereo not shown) [Example 093, 8-chloro-2-[2-[2-(4-methylsulfinyl-1-piperidyl)ethoxy]-4-(trifluoromethyl)phenyl]chromen-4-one] | 5.21 | 5.22
